Settings: for immediate release / immediate release (amount): Example 5 monolithic tablet (900 mg acetaminophen + 100 mg caffeine), after 30 minutes in SGF
Description: The dissolution kinetic assay is followed with a Distek™ apparatus according to the paddle method from USP-32, with slight modification. Indeed, the monolithic tablets are placed in 750 mL of simulated gastric fluid (SGF, pH 1.5) during 30 minutes, at 37° C. Thereafter, a volume of 250 mL of sodium tripolyphosphate 0.20 M is added directly in SGF to neutralize the gastric acidity for pH values of about 6.8-7.0 which constituted the pH of simulated intestinal fluid (SIF).
At different intervals of 30 minutes, an aliquot of 1 mL of dissolution fluid is withdrawn from dissolution media, filtered and properly diluted (approximately 1/50). The absorbency is measured with an UV spectrometer (Lambda-40 Spectrometer, Perkin Elmer) at 247 nm.
The Carboxymethyl starch is prepared according to the process of the present invention. […] For acetaminophen, the absorbency of samples is measured with an UV spectrometer at 247 nm. For caffeine, the dosage is carried out by HPLC according to method described by Hassouna et al. (Hassouna, M. E. M, Issa, Y. M. and Zayed, A. G. 2012. J. Appl. Pharm. Sci., 02, 52-59)

Row | SMILES | immediate release of Acetaminophen (amount) (Example 4 monolithic tablet (1000 mg acetaminophen), after 45 minutes (30 minutes in SGF and 15 minutes in SIF)) [mg] | immediate release of Acetaminophen (Example 4 monolithic tablet (1000 mg acetaminophen, carboxymethyl starch excipient), after 45 minutes (30 minutes in SGF pH 1.5 and 15 minutes in SIF), 37° C., FIG. 2) [%] | immediate release [%] | immediate release (amount) [mg]
1 | CC(=O)Nc1ccc(O)cc1 [Acetaminophen] | ~600 | ~60 | ~35 | ~350
2 | Cn1c(=O)c2c(ncn2C)n(C)c1=O [caffeine, Caffeine] |  |  | ~25 | ~25

Reference: patent US11793879B2, “Monolithic composition for dual-rate release with high drug loading” (priority 2016, dated 2023)
